This is an account of results in PubChem BioAssay (NCI).

What all share (experiment): growth of human tumour cells (NCI), 48 h
For assay [1], the system named is KM12 colon.
In assay [2] the test system is SK-MEL-5 melanoma.
In assay [3] the test system is PC-3 prostate.
Assay [4] concerns SF-539 CNS.
Assay [5] has as its system MCF7 breast.
The test system of assay [6] is MDA-MB-435.
Assay [7] has as its system SR leukemia.
Assay [8] deals with HL-60(TB) leukemia.
Assay [9] concerns NCI-H226 lung.
The test system of assay [10] is HOP-92 NSCLC.
The test system of assay [11] is OVCAR-4 ovarian.
The test system of assay [12] is HT29 colon.
For assay [13], the system named is 786-0 renal.
The test system of assay [14] is NCI-H460 lung.
Assay [15] relates to UACC-62 melanoma.
For assay [16], the system named is SN12C renal.
In assay [17] the test system is OVCAR-3 ovarian.
Assay [18] deals with T-47D breast.
For assay [19], the system named is SNB-19 CNS.
The test system of assay [20] is SNB-75 CNS.

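Briefly, cells in 96-well plates were exposed to five compound concentrations for 48 h, and endpoints were estimated by linear interpolation. TGI is the concentration that stops growth completely.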

`CC1=C[C@H]([C@H]2C=C(C)C(C(N)=O)=CN2Cc2c(Cl)cccc2Cl)N(Cc2c(Cl)cccc2Cl)C=C1C(N)=O`: the TGI in [1], in [2], in assay [3], in assay [4], in [5] and in [6] was more than 75 µM throughout. The TGI in assay [7] is more than 75 µM; in assay [8] it was more than 75 µM; in [9], more than 75 µM; in assay [10], 65.8 µM; in assay [11] it was more than 75 µM; in assay [12], more than 75 µM. For the same compound, the TGI in [13], in assay [14], in assay [15], in [16], in assay [17] and in assay [18] was more than 75 µM throughout. For the same compound, in [19], the TGI was more than 75 µM.

As for `COc1ccc2nc3cc([N+](=O)[O-])ccc3c(Nc3ccc(S(=O)(=O)Nc4ncccn4)cc3)c2c1`, the TGI in assay [1], in assay [2], in assay [3], in assay [4], in assay [5] and in [6] was more than 100 µM each time. For the same compound, the TGI in assay [7] is more than 30.5 µM; in assay [8], more than 100 µM; in [9], more than 100 µM; in [10], more than 100 µM; in assay [11], more than 100 µM; in assay [12] it was more than 94.8 µM. For the same compound, the TGI in assay [20], in assay [13], in assay [14], in assay [15], in assay [16] and in assay [17] was more than 100 µM throughout. Besides, the TGI in assay [18] is more than 100 µM; in assay [19], more than 53.6 µM.

For `CN(/N=C/c1ccc(Cl)c(Cl)c1)C1=NCCCCN1`, the TGI in assay [1] was 47.5 µM; in [2], 27.8 µM; in [3], more than 100 µM; in assay [4], 61.1 µM; in [5], 54.3 µM; in assay [6], 36 µM. Moreover, the TGI in assay [7] was more than 100 µM; in [8] it was 65.5 µM; in assay [9], 39.2 µM; in [10], 49.6 µM; in [11], more than 100 µM; in assay [12] it was more than 100 µM. Moreover, the TGI in [20] is more than 100 µM; in assay [13], 47.8 µM; in [14], more than 100 µM; in [15], 52.8 µM; in [16], more than 100 µM; in assay [17], more than 100 µM. For the same compound, the TGI in [18] and in [19] was more than 100 µM throughout.

As for `COc1ccc(NC(=O)C(C#N)=C(SC)SC)cc1`, the TGI in assay [2], in assay [3], in [4], in assay [5], in [6] and in [7] was more than 100 µM each time. The TGI in assay [8] was more than 100 µM; in [9], more than 100 µM; in assay [10], 55.6 µM; in [11], more than 100 µM; in assay [12] it was more than 100 µM; in assay [13], more than 100 µM. Also, the TGI in [14], in [15], in [16], in assay [17], in assay [18] and in assay [19] was more than 100 µM throughout.

As to `CCOC(=O)C(NC(=O)c1cccc(Cl)c1)(Nc1ccc(S(=O)(=O)Nc2cc(C)nc(C)n2)cc1)C(F)(F)F` (stereo unspecified), the TGI in [1], in [2], in assay [3], in assay [4], in assay [5] and in assay [6] was more than 100 µM each time. Further, the TGI in [7], in assay [8], in [9], in assay [10], in assay [11] and in assay [12] was more than 100 µM each time. In addition, the TGI in assay [20], in assay [13], in assay [14], in assay [16], in assay [17] and in assay [18] was more than 100 µM throughout. In assay [19], the TGI is more than 100 µM.

On to `CCOC(=O)C(NC(=O)c1ccccc1)(c1ccc(S(=O)(=O)Nc2onc(C)c2C)cc1)C(F)(F)F` (stereo unspecified), for which the TGI in assay [1], in assay [2], in assay [3], in assay [4], in [5] and in [6] was more than 100 µM in each case. Also, the TGI in assay [7], in assay [8], in assay [9], in assay [10], in assay [11] and in assay [12] was more than 100 µM each time. Further, the TGI in assay [20], in [13], in assay [14], in assay [15], in assay [16] and in assay [17] was more than 100 µM each time. In addition, the TGI in [18] and in [19] was more than 100 µM throughout.

As for `COc1ccc(N/N=C/C2=CC(C)(C)C(C#N)(C#N)C(O)=C2C#N)cc1`, the TGI in [1], in assay [2], in assay [3], in [4], in assay [5] and in [6] was more than 100 µM each time. The TGI is 82.3 µM in assay [7]; more than 100 µM in assay [8]; more than 100 µM in assay [9]; 75.6 µM in assay [10]; more than 100 µM in assay [11]; more than 100 µM in [12]. Further, the TGI in assay [20], in [13], in [14], in assay [15], in [16] and in [17] was more than 100 µM throughout. Further, the TGI in assay [18] and in assay [19] was more than 100 µM throughout.

In the case of `C=CCc1cccc2cc(C(=O)Nc3ccc(C)cc3)c(=N)oc12`, the TGI in assay [1], in assay [2], in assay [3], in [5], in [6] and in assay [7] was more than 100 µM each time. Also, the TGI in assay [8], in assay [9], in [10], in [11], in assay [12] and in assay [20] was more than 100 µM throughout. Moreover, the TGI in [13], in assay [14], in [15], in [16], in [17] and in [18] was more than 100 µM in each case. This compound also registered a TGI in [19] of more than 100 µM.

Regarding `O=C1CCC2(CC1CCS(=O)c1ccccc1)OCCO2` (stereo unspecified), the TGI in assay [1], in assay [2], in assay [3], in [4], in assay [5] and in assay [6] was more than 100 µM in each case. Also, the TGI in assay [7], in assay [8], in assay [9], in assay [10], in assay [11] and in assay [12] was more than 100 µM throughout. Also, the TGI in assay [20], in assay [13], in [14], in [15], in assay [17] and in assay [18] was more than 100 µM throughout. This compound had a TGI in assay [19] of more than 100 µM.

As to `CCOc1cc(C2SCC(=O)N2c2ccc3c(c2)Oc2c(Cl)c4c(c(Cl)c2=N3)Oc2cc(N3C(=O)CSC3c3ccc(O)c(OCC)c3)ccc2N=4)ccc1O` (stereo unspecified), the TGI was more than 100 µM in assay [1]; more than 100 µM in assay [2]; more than 100 µM in [3]; 28.2 µM in assay [4]; more than 100 µM in [5]; more than 100 µM in assay [6]. The TGI is more than 100 µM in assay [7]; more than 100 µM in [8]; 66.2 µM in assay [9]; 59.1 µM in assay [10]; more than 100 µM in assay [11]; more than 100 µM in assay [12]. The TGI was 50.5 µM in assay [20]; more than 100 µM in [13]; more than 100 µM in assay [14]; more than 100 µM in [17]; more than 100 µM in assay [18].

As to `Cc1nc(C)c(N2CCN(S(N)(=O)=O)CC2)c(=O)[nH]1`, the TGI in [1], in [2], in [3], in [4], in assay [5] and in assay [6] was more than 100 µM throughout. The TGI in assay [7], in assay [8], in assay [9], in assay [10], in [11] and in assay [12] was more than 100 µM each time. For the same compound, the TGI in [13], in assay [14], in [15], in assay [16], in assay [17] and in [18] was more than 100 µM in each case. The compound also yielded a TGI in assay [19] of more than 100 µM.

With `Cn1c2ccccc2c2c3c(c4c5ccccc5n(C5OC(CO)C(O)C(O)C5O)c4c21)C(=O)OC3=O` (stereo unspecified), the TGI in assay [1], in [2], in assay [3], in [4], in [5] and in assay [6] was more than 100 µM each time. Further, the TGI in [7], in assay [9], in assay [10], in [11], in assay [12] and in [20] was more than 100 µM in each case. Further, the TGI in assay [13], in [14], in [15], in [16], in assay [17] and in assay [18] was more than 100 µM throughout. The compound also came in with a TGI in assay [19] of more than 100 µM.

Take `COCN1C(=N)C(C(=O)OC(C)(C)C)=C2C=C(O)C=CC21C` (stereo unspecified): the TGI in [1] was determined as 30.5 µM; in assay [2] it was 28.6 µM; in assay [3], 30.6 µM; in [4] it was 33.6 µM; in assay [5] it was 22.9 µM; in assay [6], 27.4 µM. Further, the TGI in [7] is more than 100 µM; in [8], 83.3 µM; in [9] it was 30.6 µM; in assay [10], 17.4 µM; in assay [11], 26.6 µM; in assay [12], 19.9 µM. For the same compound, the TGI in assay [20] is 33.6 µM; in assay [13] it was 24.7 µM; in assay [14], 44.9 µM; in [15], 29.1 µM; in assay [16], 73.9 µM; in [18], 9.93 µM. This compound yielded a TGI in assay [19] of more than 100 µM.

For `[N-]=[N+]=Nc1c(-c2ccccc2)c(=O)n(-c2ccccc2)c2ccccc12`, the TGI in [1], in [3], in assay [4], in assay [5], in assay [6] and in [7] was more than 100 µM throughout. The TGI in [8], in assay [9], in [10], in assay [11], in assay [12] and in assay [20] was more than 100 µM each time. The TGI in assay [13] was more than 100 µM; in [14] it was more than 100 µM; in [15] it was more than 100 µM; in assay [16], more than 100 µM; in assay [17], more than 100 µM; in assay [18], 82.2 µM.
